According to ChEMBL document CHEMBL4507287, “Data for DCP probe MRL-650” (2021):

Legend:
[1] = target: RAC-beta serine/threonine-protein kinase (Homo sapiens) (UniProt P31751); conditions: Compound concentration 1000.0 nM
[2] = target: Aurora kinase B (Homo sapiens) (UniProt Q96GD4); conditions: Compound concentration 1000.0 nM
[3] = target: Cytoplasmic tyrosine-protein kinase BMX (Homo sapiens) (UniProt P51813); conditions: Compound concentration 1000.0 nM
[4] = target: Calcium/calmodulin-dependent protein kinase type II subunit gamma (Homo sapiens) (UniProt Q13555); conditions: Compound concentration 1000.0 nM
[5] = target: Serine/threonine-protein kinase Chk1 (Homo sapiens) (UniProt O14757); conditions: Compound concentration 1000.0 nM
[6] = target: Casein kinase I isoform delta (Homo sapiens) (UniProt P48730); conditions: Compound concentration 1000.0 nM
[7] = target: Casein kinase II subunit alpha (Homo sapiens) (UniProt P68400); conditions: Compound concentration 1000.0 nM
[8] = target: Serine/threonine-protein kinase 17A (Homo sapiens) (UniProt Q9UEE5); conditions: Compound concentration 1000.0 nM
[9] = tested on: Epidermal growth factor receptor (Homo sapiens), P00533 [G719C]; conditions: Compound concentration 1000.0 nM
[10] = tested on: Epidermal growth factor receptor (Homo sapiens), P00533 [UNDEFINED MUTATION]; conditions: Compound concentration 1000.0 nM
[11] = tested on: Receptor-type tyrosine-protein kinase FLT3 (Homo sapiens), P36888 [UNDEFINED MUTATION]; conditions: Compound concentration 1000.0 nM
[12] = tested on: Receptor-type tyrosine-protein kinase FLT3 (Homo sapiens), P36888 [K663Q]; conditions: Compound concentration 1000.0 nM
[13] = target: Glycogen synthase kinase-3 beta (Homo sapiens) (UniProt P49841); conditions: Compound concentration 1000.0 nM
[14] = target: Inhibitor of nuclear factor kappa-B kinase subunit beta (Homo sapiens) (UniProt O14920); conditions: Compound concentration 1000.0 nM
[15] = target: Insulin receptor-related protein (Homo sapiens) (UniProt P14616); conditions: Compound concentration 1000.0 nM
Insulin receptor-related protein (Homo sapiens), sequence (P14616 27-742 limits assumed): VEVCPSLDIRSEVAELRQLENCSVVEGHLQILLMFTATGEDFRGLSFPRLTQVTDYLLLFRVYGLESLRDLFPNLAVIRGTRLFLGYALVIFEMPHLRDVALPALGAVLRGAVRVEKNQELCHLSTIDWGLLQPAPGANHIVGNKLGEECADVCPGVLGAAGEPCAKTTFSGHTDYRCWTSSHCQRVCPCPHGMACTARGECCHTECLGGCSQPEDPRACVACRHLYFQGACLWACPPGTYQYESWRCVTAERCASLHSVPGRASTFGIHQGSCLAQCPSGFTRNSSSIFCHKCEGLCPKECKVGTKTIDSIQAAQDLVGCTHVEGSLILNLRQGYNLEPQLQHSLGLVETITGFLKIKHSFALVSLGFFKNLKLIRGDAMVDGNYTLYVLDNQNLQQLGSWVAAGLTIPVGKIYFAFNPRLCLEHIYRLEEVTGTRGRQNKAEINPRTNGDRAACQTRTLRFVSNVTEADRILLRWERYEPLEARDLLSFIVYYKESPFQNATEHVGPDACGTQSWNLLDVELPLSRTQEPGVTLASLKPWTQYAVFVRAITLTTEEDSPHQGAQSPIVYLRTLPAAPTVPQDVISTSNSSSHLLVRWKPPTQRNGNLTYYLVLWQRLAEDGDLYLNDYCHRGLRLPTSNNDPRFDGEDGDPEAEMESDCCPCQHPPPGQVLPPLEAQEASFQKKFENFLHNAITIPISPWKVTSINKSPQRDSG
Insulin receptor-related protein (Homo sapiens), sequence (P14616 747-1297 limits assumed): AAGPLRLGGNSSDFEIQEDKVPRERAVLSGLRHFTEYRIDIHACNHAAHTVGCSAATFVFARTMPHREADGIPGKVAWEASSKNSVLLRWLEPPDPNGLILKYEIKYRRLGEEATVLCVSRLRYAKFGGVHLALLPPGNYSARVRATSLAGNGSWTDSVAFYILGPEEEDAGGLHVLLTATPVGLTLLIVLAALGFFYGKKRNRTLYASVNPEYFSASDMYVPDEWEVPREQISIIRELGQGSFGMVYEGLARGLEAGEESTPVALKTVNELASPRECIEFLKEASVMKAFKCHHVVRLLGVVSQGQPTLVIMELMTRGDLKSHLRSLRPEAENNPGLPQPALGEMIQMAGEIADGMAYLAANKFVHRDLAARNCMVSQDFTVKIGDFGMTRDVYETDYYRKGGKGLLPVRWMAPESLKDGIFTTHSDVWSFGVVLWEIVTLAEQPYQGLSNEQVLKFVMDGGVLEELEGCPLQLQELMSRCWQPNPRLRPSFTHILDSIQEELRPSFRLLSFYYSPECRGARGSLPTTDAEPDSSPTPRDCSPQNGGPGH

[16] = target: Interleukin-1 receptor-associated kinase 4 (Homo sapiens) (UniProt Q9NWZ3); conditions: Compound concentration 1000.0 nM
[17] = tested on: Mast/stem cell growth factor receptor Kit (Homo sapiens), P10721 [D816H]; conditions: Compound concentration 1000.0 nM
[18] = tested on: Mast/stem cell growth factor receptor Kit (Homo sapiens), P10721 [V559D,V654A]; conditions: Compound concentration 1000.0 nM
[19] = target: Serine/threonine-protein kinase MAK (Homo sapiens) (UniProt P20794); conditions: Compound concentration 1000.0 nM
Serine/threonine-protein kinase MAK (Homo sapiens), sequence (P20794 whole entry): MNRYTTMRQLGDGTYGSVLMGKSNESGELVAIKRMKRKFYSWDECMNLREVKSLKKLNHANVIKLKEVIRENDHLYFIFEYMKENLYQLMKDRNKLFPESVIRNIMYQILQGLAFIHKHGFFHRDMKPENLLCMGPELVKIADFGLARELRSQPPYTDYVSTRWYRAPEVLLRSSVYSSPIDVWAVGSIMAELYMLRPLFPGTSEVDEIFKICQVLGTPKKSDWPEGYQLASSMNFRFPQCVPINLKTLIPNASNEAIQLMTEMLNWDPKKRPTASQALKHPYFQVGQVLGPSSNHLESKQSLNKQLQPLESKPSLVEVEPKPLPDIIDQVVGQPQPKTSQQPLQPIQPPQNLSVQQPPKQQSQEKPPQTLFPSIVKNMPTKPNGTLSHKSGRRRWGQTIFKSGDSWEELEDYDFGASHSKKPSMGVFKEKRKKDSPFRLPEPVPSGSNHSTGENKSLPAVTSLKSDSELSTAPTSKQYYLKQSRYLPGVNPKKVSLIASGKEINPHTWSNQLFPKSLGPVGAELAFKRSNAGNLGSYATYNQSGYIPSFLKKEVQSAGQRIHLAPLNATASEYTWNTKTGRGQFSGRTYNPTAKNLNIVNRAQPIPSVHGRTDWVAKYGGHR

[20] = target: Mitogen-activated protein kinase kinase kinase kinase 3 (Homo sapiens) (UniProt Q8IVH8); conditions: Compound concentration 1000.0 nM
[21] = target: Dual specificity mitogen-activated protein kinase kinase 5 (Homo sapiens) (UniProt Q13163); conditions: Compound concentration 1000.0 nM
[22] = target: Dual specificity mitogen-activated protein kinase kinase 6 (Homo sapiens) (UniProt P52564); conditions: Compound concentration 1000.0 nM
[23] = target: Maternal embryonic leucine zipper kinase (Homo sapiens) (UniProt Q14680); conditions: Compound concentration 1000.0 nM
[24] = target: Mitogen-activated protein kinase kinase kinase 11 (Homo sapiens) (UniProt Q16584); conditions: Compound concentration 1000.0 nM
[25] = target: Muscle, skeletal receptor tyrosine-protein kinase (Homo sapiens) (UniProt O15146); conditions: Compound concentration 1000.0 nM
[26] = target: Myosin-IIIb (Homo sapiens) (UniProt Q8WXR4); conditions: Compound concentration 1000.0 nM
[27] = target: Serine/threonine-protein kinase 38-like (Homo sapiens) (UniProt Q9Y2H1); conditions: Compound concentration 1000.0 nM
[28] = target: Serine/threonine-protein kinase Nek6 (Homo sapiens) (UniProt Q9HC98); conditions: Compound concentration 1000.0 nM
[29] = target: Mitogen-activated protein kinase 11 (Homo sapiens) (UniProt Q15759); conditions: Compound concentration 1000.0 nM
Mitogen-activated protein kinase 11 (Homo sapiens), sequence (Q15759 whole entry): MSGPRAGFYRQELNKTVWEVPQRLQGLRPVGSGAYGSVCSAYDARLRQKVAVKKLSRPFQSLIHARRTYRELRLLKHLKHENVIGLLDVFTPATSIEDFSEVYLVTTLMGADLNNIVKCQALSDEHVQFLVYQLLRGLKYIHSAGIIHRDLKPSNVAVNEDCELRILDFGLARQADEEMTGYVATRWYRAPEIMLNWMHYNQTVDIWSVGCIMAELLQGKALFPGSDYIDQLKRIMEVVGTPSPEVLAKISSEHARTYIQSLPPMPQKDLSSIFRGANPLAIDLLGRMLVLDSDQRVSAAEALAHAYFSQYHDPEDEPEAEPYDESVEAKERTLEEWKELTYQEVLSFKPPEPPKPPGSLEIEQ

[30] = target: Serine/threonine-protein kinase PAK 4 (Homo sapiens) (UniProt O96013); conditions: Compound concentration 1000.0 nM
[31] = target: Calcium-dependent protein kinase 1 (Plasmodium falciparum) (UniProt P62344); conditions: Compound concentration 1000.0 nM
[32] = target: Phosphatidylinositol 3-kinase C2 domain-containing subunit gamma (Homo sapiens) (UniProt O75747); conditions: Compound concentration 1000.0 nM
Phosphatidylinositol 3-kinase C2 domain-containing subunit gamma (Homo sapiens), sequence (O75747 whole entry, the tested form may be a part, canonical isoform): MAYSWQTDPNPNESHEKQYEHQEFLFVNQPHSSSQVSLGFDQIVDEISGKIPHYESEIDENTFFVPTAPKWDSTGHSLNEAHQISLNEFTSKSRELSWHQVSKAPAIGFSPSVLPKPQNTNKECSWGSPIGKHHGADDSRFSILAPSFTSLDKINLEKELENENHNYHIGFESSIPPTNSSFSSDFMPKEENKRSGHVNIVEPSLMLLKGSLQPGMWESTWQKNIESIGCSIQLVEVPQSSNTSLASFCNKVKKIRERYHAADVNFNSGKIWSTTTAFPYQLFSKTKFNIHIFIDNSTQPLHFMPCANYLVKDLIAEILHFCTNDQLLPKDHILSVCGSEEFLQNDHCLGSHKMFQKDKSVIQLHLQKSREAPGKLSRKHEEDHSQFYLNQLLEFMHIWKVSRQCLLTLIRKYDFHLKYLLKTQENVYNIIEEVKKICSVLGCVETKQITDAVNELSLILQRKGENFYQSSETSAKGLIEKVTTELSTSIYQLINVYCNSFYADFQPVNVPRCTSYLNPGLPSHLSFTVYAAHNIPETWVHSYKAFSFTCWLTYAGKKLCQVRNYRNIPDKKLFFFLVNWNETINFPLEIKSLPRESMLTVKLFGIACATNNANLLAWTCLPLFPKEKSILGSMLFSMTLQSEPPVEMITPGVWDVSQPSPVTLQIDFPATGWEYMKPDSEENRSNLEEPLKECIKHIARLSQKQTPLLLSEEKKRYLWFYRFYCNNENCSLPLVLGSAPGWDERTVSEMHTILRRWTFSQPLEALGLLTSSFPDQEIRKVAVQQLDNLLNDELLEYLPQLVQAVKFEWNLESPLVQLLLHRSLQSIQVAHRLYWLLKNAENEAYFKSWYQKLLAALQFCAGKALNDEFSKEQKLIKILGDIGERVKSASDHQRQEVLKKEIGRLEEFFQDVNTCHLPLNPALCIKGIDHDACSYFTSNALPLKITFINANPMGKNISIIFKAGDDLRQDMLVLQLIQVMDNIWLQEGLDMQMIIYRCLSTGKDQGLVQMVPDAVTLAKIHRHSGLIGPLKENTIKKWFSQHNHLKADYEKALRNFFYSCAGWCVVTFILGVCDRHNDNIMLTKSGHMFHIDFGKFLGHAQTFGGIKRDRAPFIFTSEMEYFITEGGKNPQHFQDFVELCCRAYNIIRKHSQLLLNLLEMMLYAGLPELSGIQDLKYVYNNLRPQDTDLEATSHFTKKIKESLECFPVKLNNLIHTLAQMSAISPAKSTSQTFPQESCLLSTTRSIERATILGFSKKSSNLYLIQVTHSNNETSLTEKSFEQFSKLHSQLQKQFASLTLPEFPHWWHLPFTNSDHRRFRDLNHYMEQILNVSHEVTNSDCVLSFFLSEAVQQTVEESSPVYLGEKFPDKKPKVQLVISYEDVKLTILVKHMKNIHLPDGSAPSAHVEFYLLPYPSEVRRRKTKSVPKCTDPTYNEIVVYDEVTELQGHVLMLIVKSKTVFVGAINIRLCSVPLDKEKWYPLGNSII

[33] = tested on: Phosphatidylinositol 4,5-bisphosphate 3-kinase catalytic subunit alpha isoform (Homo sapiens), P42336 [E545K]; conditions: Compound concentration 1000.0 nM
[34] = target: Phosphatidylinositol 5-phosphate 4-kinase type-2 gamma (Homo sapiens) (UniProt Q8TBX8); conditions: Compound concentration 1000.0 nM
[35] = target: cAMP-dependent protein kinase catalytic subunit alpha (Homo sapiens) (UniProt P17612); conditions: Compound concentration 1000.0 nM
[36] = target: Serine/threonine-protein kinase N1 (Homo sapiens) (UniProt Q16512); conditions: Compound concentration 1000.0 nM
[37] = target: Protein kinase C eta type (Homo sapiens) (UniProt P24723); conditions: Compound concentration 1000.0 nM
[38] = target: Serine/threonine-protein kinase D1 (Homo sapiens) (UniProt Q15139); conditions: Compound concentration 1000.0 nM
[39] = target: Serine/threonine-protein kinase RIO2 (Homo sapiens) (UniProt Q9BVS4); conditions: Compound concentration 1000.0 nM
[40] = target: Ribosomal protein S6 kinase alpha-5 (Homo sapiens) (UniProt O75582); conditions: Compound concentration 1000.0 nM
[41] = target: Ribosomal protein S6 kinase alpha-6 (Homo sapiens) (UniProt Q9UK32); conditions: Compound concentration 1000.0 nM
[42] = target: Wee1-like protein kinase 2 (Homo sapiens) (UniProt P0C1S8); conditions: Compound concentration 1000.0 nM
Wee1-like protein kinase 2 (Homo sapiens), sequence (P0C1S8 whole entry, looked up): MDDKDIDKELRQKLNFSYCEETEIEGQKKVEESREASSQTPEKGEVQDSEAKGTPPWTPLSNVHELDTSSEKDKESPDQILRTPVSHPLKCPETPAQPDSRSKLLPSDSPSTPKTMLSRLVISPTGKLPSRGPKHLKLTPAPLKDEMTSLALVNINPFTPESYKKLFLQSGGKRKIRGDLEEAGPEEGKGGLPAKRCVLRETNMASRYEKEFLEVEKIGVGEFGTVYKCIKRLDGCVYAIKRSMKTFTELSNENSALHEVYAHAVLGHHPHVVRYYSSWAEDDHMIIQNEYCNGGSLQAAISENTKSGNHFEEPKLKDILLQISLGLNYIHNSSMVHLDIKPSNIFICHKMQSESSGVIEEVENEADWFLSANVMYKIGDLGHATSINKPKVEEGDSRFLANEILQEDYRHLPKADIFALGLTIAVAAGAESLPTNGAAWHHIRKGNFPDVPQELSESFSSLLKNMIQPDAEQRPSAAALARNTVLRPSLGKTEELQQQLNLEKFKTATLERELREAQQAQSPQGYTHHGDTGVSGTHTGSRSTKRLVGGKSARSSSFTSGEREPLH

[43] = target: Tyrosine-protein kinase ZAP-70 (Homo sapiens) (UniProt P43403); conditions: Compound concentration 1000.0 nM
[44] = target: Delta-type opioid receptor (Homo sapiens, UniProt P41143); conditions: Compound concentration 10.0 uM
Rattus norvegicus = species: Rattus norvegicus; conditions: Compound concentration 10.0 uM

RAC-beta serine/threonine-protein kinase (Homo sapiens), sequence (P31751 whole entry): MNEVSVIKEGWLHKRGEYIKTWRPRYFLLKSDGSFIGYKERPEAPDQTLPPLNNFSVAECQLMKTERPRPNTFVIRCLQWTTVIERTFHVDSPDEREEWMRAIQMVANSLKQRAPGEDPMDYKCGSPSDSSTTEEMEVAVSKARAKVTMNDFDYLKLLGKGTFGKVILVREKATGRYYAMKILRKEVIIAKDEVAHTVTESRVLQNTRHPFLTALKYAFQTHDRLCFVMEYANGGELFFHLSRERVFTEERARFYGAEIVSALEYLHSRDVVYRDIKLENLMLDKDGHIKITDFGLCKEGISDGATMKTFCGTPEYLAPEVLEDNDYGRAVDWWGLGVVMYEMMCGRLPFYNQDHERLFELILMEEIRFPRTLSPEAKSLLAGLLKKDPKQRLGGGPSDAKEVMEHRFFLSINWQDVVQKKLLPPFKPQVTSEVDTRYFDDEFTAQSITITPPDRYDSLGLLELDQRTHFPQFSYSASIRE

CC(=O)c1c(NS(C)(=O)=O)c2cc(-c3ccc(Cl)cc3)c(-c3ccc(Cl)cc3Cl)nc2n(C)c1=O [MRL-CB1-NC]
inactive: residual activity [1] 100% | residual activity [2] 100% | residual activity [3] 100% | residual activity [4] 100% | residual activity [5] 100% | residual activity [6] 100% | residual activity [7] 92% | residual activity [8] 88% | residual activity [9] 100% | residual activity [10] 90% | residual activity [11] 94% | residual activity [12] 100% | residual activity [13] 97% | residual activity [14] 98% | residual activity [15] 93% | residual activity [16] 95% | residual activity [17] 70% | residual activity [18] 89% | residual activity [19] 93% | residual activity [20] 99% | residual activity [21] 80% | residual activity [22] 100% | residual activity [23] 100% | residual activity [24] 100% | residual activity [25] 99% | residual activity [26] 99% | residual activity [27] 76% | residual activity [28] 100% | residual activity [29] 100% | residual activity [30] 92% | residual activity [31] 99% | residual activity [32] 91% | residual activity [33] 91% | residual activity [34] 100% | residual activity [35] 100% | residual activity [36] 100% | residual activity [37] 91% | residual activity [38] 100% | residual activity [39] 100% | residual activity [40] 100% | residual activity [41] 76% | residual activity [42] 100% | residual activity [43] 100% | inhibition (Rattus norvegicus) 36.9%
active: inhibition [44] 73.6%

CC(=O)Nc1c(C(C)=O)c(=O)n(C)c2nc(-c3ccc(Cl)cc3Cl)c(-c3ccc(Cl)cc3)cc12 [NAPHTHYRIDINONE]
active: inhibition (Rattus norvegicus) 82.7%
inactive: residual activity [1] 100% | residual activity [2] 92% | residual activity [3] 100% | residual activity [4] 100% | residual activity [5] 100% | residual activity [6] 100% | residual activity [7] 100% | residual activity [8] 100% | residual activity [9] 100% | residual activity [10] 86% | residual activity [11] 100% | residual activity [12] 100% | residual activity [13] 100% | residual activity [14] 100% | residual activity [15] 100% | residual activity [16] 100% | residual activity [17] 100% | residual activity [18] 100% | residual activity [19] 100% | residual activity [20] 100% | residual activity [21] 94% | residual activity [22] 100% | residual activity [23] 100% | residual activity [24] 100% | residual activity [25] 100% | residual activity [26] 100% | residual activity [27] 87% | residual activity [28] 100% | residual activity [29] 93% | residual activity [30] 100% | residual activity [31] 95% | residual activity [32] 63% | residual activity [33] 79% | residual activity [34] 100% | residual activity [35] 100% | residual activity [36] 92% | residual activity [37] 100% | residual activity [38] 100% | residual activity [39] 100% | residual activity [40] 100% | residual activity [41] 88% | residual activity [42] 100% | residual activity [43] 100% | inhibition [44] -2.35%
